The values below come from patent US9011863B2, “Combinations of kinase inhibitors for the treatment of cancer” (Exelixis, Inc., priority 2010, dated 2015).

For test [1], the system named is phospho-Akt, HER3, RTKs and intracellular kinases in HCC1937 cells. The test can be described thus: phospho-RTK / phospho-kinase arrays and Western blotting in HCC1937 cells. It counts as cell-based, human. On the procedure:
FIG. 1A. siRNA screen to identify kinases that potentially compensate for PI3K inhibition. HCC1937 breast cancer cells were treated with the indicated amounts of compound A for 6, 24, or 72 hours in medium containing 2.5% FBS. Cell lysates analyzed by immunoblotting with the indicated antibodies.
FIGS. 3A and 3B. PI3K inhibition induces phosphorylation of RTKs and intracellular kinases. HCC1937 cells were treated with 10 μM compound A in medium containing 2.5% FBS for 0, 8, 24, or 48 hours. Media and drugs were replenished every 24 hours. Lysates were used to probe phospho-RTK arrays (FIG. 3A) or phospho-kinase arrays (FIG. 3B) (R&D systems). Corner spots are positive controls. Candidate kinases from the siRNA screen that are also phosphorylated upon treatment with compound A are shown in red.
FIGS. 4A and 4B. HCC1937 cells were treated with 10 μM compound A in medium containing 2.5% FBS for 0, 8, 24, or 48 hours. Media and drugs were replenished every 24 hours. Lysates were used to probe phospho-RTK arrays (A) or phospho-kinase arrays (B) (R&D systems). Corner spots are positive controls. Candidate kinases from the siRNA screen that are also phosphorylated upon treatment with compound A are shown in red.
The purpose of the present study is to identify kinases and kinase-regulated signaling pathways that compensate for PI3K inhibition in human breast cancer cells. To this end, siRNA screen is employed targeting 779 human kinases in order to determine if downregulation of specific kinases increases the sensitivity of HCC1937 human breast cancer cells to the PI3K inhibitor compound A, which a compound of formula I and of Table 1. […] Following reverse transfection with the siRNA library, cells are treated with either DMSO or 10 μM compound A for 72 hours in a medium containing 2.5% fetal bovine serum (FIGS. 1A and 2) and the alamar blue assay is used to measure cell viability FIG. 1B. […] HCC1937 cells were treated with 10 μM compound A in medium containing 2.5% FBS for 0, 2, 8, or 24 hours. RNA was isolated with Trizol and purified using the RNeasy column (Qiagen). Gene expression from three independent experiments was measured using the Gene titan 3′ microarray. *, p<0.05; **, p<0.01 versus 0 hours, as shown in FIG. 5.
(In general: In western blotting, separated proteins are transferred to a membrane and probed.)

Test [2] has as its system receptors of tyrosine kinase (RTKs) in BT474 cells. The test can be described thus: phospho-RTK arrays and RTK qPCR in BT474 cells. It counts as cell-based, human. On the procedure: FIG. 19B depicts a photomicrograph of BT474 cells were treated with 6 μM compound A over a time course up to 24 hours as indicated. Cell lysates were prepared, and 200 μg of total protein were hybridized to arrays containing probes for 42 different receptors of tyrosine kinase (RTKs).
FIG. 19C depicts a photomicrograph of BT474 cells were treated with 6 μM compound A over a time course up to 24 hours as indicated.
FIG. 19D depicts a bar-graph representing the amount of RTK mRNA as identified using real-time qPCR analysis of the indicated RTKs in RNA collected from BT474 cells treated with either DMSO or 10 μM compound A for 6 hours.
Immunoprecipitation, immunoblotting, and RTK assays were performed according to published methods. Primary antibodies included AKT, pAKT^S473, pAKT^T308, ERK, pERK^T202/Y204, pHER2^Y1248, pHER3^Y1197, pHER3^Y1222, pHER3^Y1289, S6, pS6^S240/244, p27, pRb^S780, FoxO1, FoxO3a, MEK1/2 (Cell Signaling Technology, Danvers, Mass., USA), p85, 4G10 pTyr (Millipore, Billerica, Mass., USA), HER3, CyclinD1, RhoA, HDAC3 (Santa Cruz Biotechnology, Santa Cruz, Calif., USA), PARP (BD Transduction Laboratories), β-actin (Sigma, St. Louis, Mo., USA), and HER2 (Neomarkers, division of Thermo Scientific, Freemenot, Calif., USA). […] Immunoreactive signals were detected by enhanced chemilluminsecence (Pierce, Rockford, Ill., USA). […]
In general terms: Quantitative PCR measures a nucleic acid by following its amplification.

Test [3] concerns HER3 expression in A549 human lung xenografts. Description: HER3 modulation in A549 tumors. It counts as in vivo, Swiss nude mice. On the procedure:
Briefly, mice bearing measurable lung A549 tumors implanted SC have been left untreated or treated either by MM121 as a single agent (at dose of 5 mg/kg or 30 mg/kg, one administration) or by compound A as a single agent (at dose of 30 mg/kg or 100 mg/kg, daily administrations) or by a combination of both (at 30 mg/kg for MM121 and 100 mg/kg for compound A). The HER3 expression level in xenografted tumors has been followed for up to 96 hours.

Regarding `COc1ccc(Cl)c(Nc2nc3ccccc3nc2NS(=O)(=O)c2cccc(NC(=O)C(C)(C)N)c2)c1` [Compound A], the “phospho-Akt and HER3 by Western blotting” value in test [1] (HCC1937) is “decreases phospho-Akt at S473 and T308 and increases phospho- and total HER3”. Also, in test [1] (HCC1937), the “phosphorylation of MAP kinases” value was “increases phosphorylation of the MAP kinases ERK, JNK, and p38 MAPK”. In addition, the phospho-Akt result is “phosphorylation at S473 is partially restored” in test [1] (HCC1937, 10 μM, 48 hours); “suppressed phospho-Akt at both S473 and T308” in test [1] (HCC1937, 10 μM, eight and 24 hour treatments). Moreover, in test [1] (HCC1937, 10 μM, within 8-48 hours), the “expression and/or phosphorylation of RTKs and intracellular kinases” value is “increased expression and/or phosphorylation of many RTKs and intracellular kinases”. Besides, the phospho-RTK arrays entry in test [2] (BT474, 6 μM, 24-h time course) is “increase in not only HER3, but also multiple other RTKs”. The “RTK mRNAs by qPCR” value in test [2] (BT474, 10 μM, 6 hours) is “increase in ERBB4, IGF-IR, InsR, EphA1, FGFR2, and FGFR3 mRNAs”. Moreover, the “HER3 expression, Change vs Control (%)” value in test [3] (Compound A 30 mg/kg PO: Q1Dx1, 4 h) is recorded as −3%; in test [3] (Compound A 30 mg/kg PO: Q1Dx1, 24 h) it was 12%; in test [3] (Compound A 30 mg/kg PO: Q1Dx2, 24 h) it was 23%; in test [3] (Compound A 30 mg/kg PO: Q1Dx3, 24 h), 27%; in test [3] (Compound A 100 mg/kg PO: Q1Dx1, 4 h), 10%; in test [3] (Compound A 100 mg/kg PO: Q1Dx1, 24 h), 19%. The “HER3 expression, Change vs Control (%)” value in test [3] (Compound A 100 mg/kg PO: Q1Dx2, 24 h) amounted to 45%; in test [3] (Compound A 100 mg/kg PO: Q1Dx3, 24 h) it was 37%. Further, the “HER3 expression in A549 lung model (summary of Table 5)” value in test [3] (up to 96 hours) is recorded as “slight increase of HER3 expression”.
